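Each compound was tested at five concentrations against cells in 96-well plates for 48 hours. GI50: concentration for 50% inhibition of growth. At the TGI there is no net growth.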
Assays:
Test in all cases: NCI tumour cell line growth inhibition, 48 h
786-0 renal = tested on: 786-0 renal
ACHN renal = tested on: ACHN renal
BT-549 breast = tested on: BT-549 breast
CAKI-1 renal = tested on: CAKI-1 renal
CCRF-CEM leukemia = tested on: CCRF-CEM leukemia
COLO 205 colon = tested on: COLO 205 colon
DU-145 prostate = tested on: DU-145 prostate
EKVX NSCLC = tested on: EKVX NSCLC
HCC-2998 colon = tested on: HCC-2998 colon
HCT-116 colon = tested on: HCT-116 colon
HCT-15 colon = tested on: HCT-15 colon
HL-60(TB) leukemia = tested on: HL-60(TB) leukemia
HOP-62 NSCLC = tested on: HOP-62 NSCLC
HOP-92 NSCLC = tested on: HOP-92 NSCLC
HS 578T breast = tested on: HS 578T breast
HT29 colon = tested on: HT29 colon
IGROV1 ovarian = tested on: IGROV1 ovarian
K-562 leukemia = tested on: K-562 leukemia
KM12 colon = tested on: KM12 colon
LOX IMVI melanoma = tested on: LOX IMVI melanoma
M14 melanoma = tested on: M14 melanoma
MALME-3M melanoma = tested on: MALME-3M melanoma
MCF7 breast = tested on: MCF7 breast
MDA-MB-435 = tested on: MDA-MB-435
MDA-MB-468 breast = tested on: MDA-MB-468 breast
MOLT-4 leukemia = tested on: MOLT-4 leukemia
NCI-H23 lung = tested on: NCI-H23 lung
NCI-H460 lung = tested on: NCI-H460 lung
NCI-H522 lung = tested on: NCI-H522 lung
NCI/ADR-RES ovarian = tested on: NCI/ADR-RES ovarian
OVCAR-3 ovarian = tested on: OVCAR-3 ovarian
OVCAR-4 ovarian = tested on: OVCAR-4 ovarian
OVCAR-5 ovarian = tested on: OVCAR-5 ovarian
OVCAR-8 ovarian = tested on: OVCAR-8 ovarian
RPMI-8226 leukemia = tested on: RPMI-8226 leukemia
RXF 393 renal = tested on: RXF 393 renal
SF-268 CNS = tested on: SF-268 CNS
SF-539 CNS = tested on: SF-539 CNS
SK-MEL-28 melanoma = tested on: SK-MEL-28 melanoma
SK-MEL-5 melanoma = tested on: SK-MEL-5 melanoma
SK-OV-3 ovarian = tested on: SK-OV-3 ovarian
SN12C renal = tested on: SN12C renal
SNB-19 CNS = tested on: SNB-19 CNS
SR leukemia = tested on: SR leukemia
SW-620 colon = tested on: SW-620 colon
T-47D breast = tested on: T-47D breast
TK-10 renal = tested on: TK-10 renal
UACC-257 melanoma = tested on: UACC-257 melanoma
UACC-62 melanoma = tested on: UACC-62 melanoma

## COc1cc2cc(C(=O)N3C[C@@H](CCl)c4c3cc(OC(=O)N3CCN(C)[C@@H]5CSSC[C@H]53)c3ccccc43)[nH]c2c(OC)c1OC
786-0 renal
  GI50: 16.3 nM
  TGI: 69.3 nM
ACHN renal
  GI50: < 7.85 nM
  TGI: 29.3 nM
BT-549 breast
  GI50: 15.4 nM
  TGI: 55.9 nM
CAKI-1 renal
  GI50: 27.3 nM
  TGI: 586 nM
CCRF-CEM leukemia
  GI50: 26.3 nM
  TGI: 2000 nM
COLO 205 colon
  GI50: 49.2 nM
  TGI: 176 nM
DU-145 prostate
  GI50: < 7.85 nM
  TGI: 9010 nM
EKVX NSCLC
  GI50: 18.2 nM
  TGI: 133 nM
HCC-2998 colon
  GI50: 15.4 nM
  TGI: 37.8 nM
HCT-116 colon
  GI50: 18.1 nM
  TGI: 8510 nM
HCT-15 colon
  GI50: 21.8 nM
  TGI: 554 nM
HL-60(TB) leukemia
  GI50: < 7.85 nM
  TGI: 110 nM
HOP-62 NSCLC
  GI50: 12.3 nM
  TGI: 65.4 nM
HOP-92 NSCLC
  GI50: 26.7 nM
  TGI: 824 nM
HS 578T breast
  GI50: 159 nM
  TGI: 668 nM
HT29 colon
  GI50: 34.1 nM
  TGI: 876 nM
IGROV1 ovarian
  GI50: 58.4 nM
  TGI: 266 nM
K-562 leukemia
  GI50: 24.6 nM
  TGI: 78500 nM
KM12 colon
  GI50: 43.7 nM
  TGI: 3640 nM
LOX IMVI melanoma
  GI50: 12.2 nM
  TGI: 43.5 nM
M14 melanoma
  GI50: 10.5 nM
  TGI: 26.2 nM
MALME-3M melanoma
  GI50: 13.7 nM
  TGI: 33.3 nM
MCF7 breast
  GI50: < 7.85 nM
  TGI: 178 nM
MDA-MB-435
  GI50: 27.4 nM
  TGI: 138 nM
MDA-MB-468 breast
  GI50: 11.5 nM
  TGI: 30.8 nM
MOLT-4 leukemia
  GI50: < 7.85 nM
  TGI: 215 nM
NCI-H23 lung
  GI50: < 7.85 nM
  TGI: 13.8 nM
NCI-H460 lung
  GI50: < 7.85 nM
  TGI: 791 nM
NCI-H522 lung
  GI50: 12.4 nM
  TGI: 48 nM
NCI/ADR-RES ovarian
  GI50: 11.1 nM
  TGI: 52.8 nM
OVCAR-3 ovarian
  GI50: 52.7 nM
  TGI: 578 nM
OVCAR-4 ovarian
  GI50: 160 nM
  TGI: 799 nM
OVCAR-5 ovarian
  GI50: 36.3 nM
  TGI: 380 nM
OVCAR-8 ovarian
  GI50: 8.62 nM
  TGI: 68 nM
RPMI-8226 leukemia
  GI50: 33.9 nM
  TGI: 458 nM
RXF 393 renal
  GI50: 9.53 nM
  TGI: 20.1 nM
SF-268 CNS
  GI50: 14.8 nM
  TGI: 1350 nM
SF-539 CNS
  GI50: 9.97 nM
  TGI: 29.3 nM
SK-MEL-28 melanoma
  GI50: 14.5 nM
  TGI: 31 nM
SK-MEL-5 melanoma
  GI50: 13.2 nM
  TGI: 24.2 nM
SK-OV-3 ovarian
  GI50: 12.4 nM
  TGI: 44.3 nM
SN12C renal
  GI50: 17.1 nM
  TGI: 831 nM
SNB-19 CNS
  GI50: 16.4 nM
  TGI: 1090 nM
SR leukemia
  GI50: < 7.85 nM
  TGI: 61.3 nM
SW-620 colon
  GI50: 58.1 nM
  TGI: 78500 nM
T-47D breast
  GI50: 50.2 nM
  TGI: 553 nM
TK-10 renal
  GI50: 127 nM
  TGI: 2400 nM
UACC-257 melanoma
  GI50: 23.9 nM
  TGI: 78.4 nM
UACC-62 melanoma
  GI50: 15.1 nM
  TGI: 87.9 nM

Reference: PubChem BioAssay (NCI)
